The record followed here is US9926297B2, “Bicyclic AZA compounds as muscarinic M1 receptor and/or M4 receptor agonists” (Heptares Therapeutics Limited, priority 2014, dated 2018).

Bounds are passed on as bounds.

Test [1] concerns the target human muscarinic M3 receptor (Homo sapiens, UniProt P20309). Kind of test: Alphascreen Surefire phospho-ERK1/2 functional assay, M3. Conditions: for Emax: CHO, read-out: % Emax cf. ACh, M3, CHO cells stably expressing human M3; for EC50: pEC50 M3, CHO cells stably expressing human M3. In general terms: Bead proximity is the source of the signal in Alpha formats.
Test [2] has as its target T1, human muscarinic M1 receptor (Homo sapiens, UniProt P11229).
T1 sequence (P11229 1-460): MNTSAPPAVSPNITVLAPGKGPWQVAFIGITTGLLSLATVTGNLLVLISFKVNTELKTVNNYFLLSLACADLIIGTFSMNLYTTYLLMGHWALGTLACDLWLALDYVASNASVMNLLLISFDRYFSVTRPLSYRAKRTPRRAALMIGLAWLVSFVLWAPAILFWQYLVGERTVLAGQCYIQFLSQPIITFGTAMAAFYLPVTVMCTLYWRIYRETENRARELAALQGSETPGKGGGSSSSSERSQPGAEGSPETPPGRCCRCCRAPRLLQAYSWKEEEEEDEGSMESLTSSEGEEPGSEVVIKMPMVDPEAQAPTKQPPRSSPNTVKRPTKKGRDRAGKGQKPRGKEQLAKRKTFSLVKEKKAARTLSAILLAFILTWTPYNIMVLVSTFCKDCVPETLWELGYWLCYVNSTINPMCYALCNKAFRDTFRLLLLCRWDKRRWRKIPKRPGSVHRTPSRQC
Kind of test: Alphascreen Surefire phospho-ERK1/2 functional assay, M1. In kind it is cell-based. The note with it: for EC50: phospho-ERK1/2, * = variable results, read-out: pEC50 M1 (converted); for Emax: CHO, read-out: % Emax cf. ACh, M1, CHO cells stably expressing human M1.
Description: (§1) CHO cells stably expressing the human muscarinic M1, M2, M3 or M4 receptor were plated (25K/well) onto 96-well tissue culture plates in MEM-alpha+10% dialysed FBS. Once adhered, cells were serum-starved overnight. Agonist stimulation was performed by the addition of 5 μL agonist to the cells for 5 min (37° C.). Media was removed and 50 μL of lysis buffer added. After 15 min, a 4 μL sample was transferred to 384-well plate and 7 μL of detection mixture added. Plates were incubated for 2 h with gentle agitation in the dark and then read on a PHERAstar plate reader.
(§2) pEC50 and Emax figures were calculated from the resulting data for each receptor subtype.

In test [3] the target is T2, human muscarinic M2 receptor (Homo sapiens, UniProt P08172).
T2 sequence (P08172 1-466): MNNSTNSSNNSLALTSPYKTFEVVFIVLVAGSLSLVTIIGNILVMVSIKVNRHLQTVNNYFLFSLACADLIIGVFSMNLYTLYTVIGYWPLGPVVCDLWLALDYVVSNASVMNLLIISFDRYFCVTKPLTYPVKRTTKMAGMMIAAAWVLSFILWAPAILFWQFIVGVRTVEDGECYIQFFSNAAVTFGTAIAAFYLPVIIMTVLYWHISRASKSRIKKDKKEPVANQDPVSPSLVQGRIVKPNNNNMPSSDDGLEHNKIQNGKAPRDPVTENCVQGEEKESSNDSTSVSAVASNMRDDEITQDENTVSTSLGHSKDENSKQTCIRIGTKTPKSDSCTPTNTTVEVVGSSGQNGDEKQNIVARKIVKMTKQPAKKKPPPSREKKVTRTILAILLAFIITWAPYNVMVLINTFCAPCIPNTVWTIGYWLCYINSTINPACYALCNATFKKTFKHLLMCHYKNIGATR
Kind of test: Alphascreen Surefire phospho-ERK1/2 functional assay, M2. The note with it: for Emax: CHO, read-out: % Emax cf. ACh, M2, CHO cells stably expressing human M2.

For test [4], the target named is T3, human muscarinic M4 receptor (Homo sapiens, UniProt P08173).
T3 construct: expressed in transfected cells
T3 sequence (P08173 1-479): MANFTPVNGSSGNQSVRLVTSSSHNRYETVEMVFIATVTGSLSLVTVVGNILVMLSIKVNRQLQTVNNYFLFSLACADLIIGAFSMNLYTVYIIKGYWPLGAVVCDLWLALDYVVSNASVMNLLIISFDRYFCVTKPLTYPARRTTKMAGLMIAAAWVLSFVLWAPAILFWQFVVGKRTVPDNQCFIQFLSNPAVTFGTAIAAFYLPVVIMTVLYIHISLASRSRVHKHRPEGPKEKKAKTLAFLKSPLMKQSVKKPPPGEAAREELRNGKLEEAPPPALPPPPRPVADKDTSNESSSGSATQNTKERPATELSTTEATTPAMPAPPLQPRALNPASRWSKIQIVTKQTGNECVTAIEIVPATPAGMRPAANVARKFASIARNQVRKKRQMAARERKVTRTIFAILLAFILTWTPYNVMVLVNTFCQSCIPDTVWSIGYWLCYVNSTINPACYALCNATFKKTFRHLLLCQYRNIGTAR
Kind of test: Alphascreen Surefire phospho-ERK1/2 functional assay, M4. In kind it is cell-based. Conditions: for EC50: phospho-ERK1/2, * = variable results, read-out: pEC50 M4 (converted); for Emax: CHO, read-out: % Emax cf. ACh, M4, CHO cells stably expressing human M4.
Description: as §1, §2

Setting [5] is: phospho-ERK1/2, * = variable results.
[6] abbreviates: CHO cells stably expressing human M1.
[7] abbreviates: CHO cells stably expressing human M4.

human muscarinic M3 receptor, sequence (P20309 whole entry): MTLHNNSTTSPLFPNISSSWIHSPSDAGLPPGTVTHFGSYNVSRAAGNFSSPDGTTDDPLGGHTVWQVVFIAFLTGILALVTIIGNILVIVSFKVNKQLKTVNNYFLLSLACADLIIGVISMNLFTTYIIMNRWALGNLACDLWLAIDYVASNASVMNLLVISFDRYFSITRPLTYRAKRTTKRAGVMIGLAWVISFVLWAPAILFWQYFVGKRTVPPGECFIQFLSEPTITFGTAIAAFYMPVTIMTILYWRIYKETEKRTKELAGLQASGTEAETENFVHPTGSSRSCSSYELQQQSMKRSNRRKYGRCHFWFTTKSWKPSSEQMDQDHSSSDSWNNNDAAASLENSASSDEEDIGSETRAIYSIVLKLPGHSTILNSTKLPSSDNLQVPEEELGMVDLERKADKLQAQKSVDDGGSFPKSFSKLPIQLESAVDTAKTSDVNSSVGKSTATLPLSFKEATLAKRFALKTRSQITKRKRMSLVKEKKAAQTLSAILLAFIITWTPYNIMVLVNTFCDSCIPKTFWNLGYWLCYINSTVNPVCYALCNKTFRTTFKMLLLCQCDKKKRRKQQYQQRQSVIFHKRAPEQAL

The term Emax denotes the greatest response seen or fitted, relative to the assay's reference. In the case of `CCOC(=O)N1CCC2(CC(N3CCC(N4CC(F)(F)C[C@@H]4C(=O)N(C)C)CC3)C2)C1` (single isomer, unassigned) [2-89 Isomer 2], the Emax in test [1] (relative to ACh) worked out at 8%; in test [2] (relative to ACh), 37%; in test [3] (relative to ACh), 68%; in test [4] (relative to ACh) it was 102%. Besides, the EC50 is above 20 µM in test [1] (setting [5]), 6.31 µM in test [2] (setting [6]), above 20 µM in test [3] and 0.2 µM in test [4] (setting [7]).
For the compound `COC(=O)N1CCC2(CC(N3CCC(n4cc(C)cn4)CC3)C2)C1` (single isomer, unassigned) [1-42 Isomer 2, methyl 2-[4-(4-methyl-1H-pyrazol-1-yl)piperidin-1-yl]-6-azaspiro[3.4]octane-6-carboxylate], the Emax in test [1] (relative to ACh) was 16%; in test [2] (relative to ACh), 123%; in test [3] (relative to ACh), 27%; in test [4] (relative to ACh) it was 76%. Besides, the EC50 in test [1] (setting [5]) is above 20 µM; in test [2] (setting [6]), 0.0398 µM; in test [3], 0.316 µM; in test [4] (setting [7]), 0.00631 µM.
In the case of `CCOC(=O)N1CCC2(CC(N3CCC([C@@H]4CCCN4C(=O)OCCN(C)C)CC3)C2)C1` (single isomer, unassigned) [2-51 Isomer 2], the Emax in test [1] (relative to ACh) was 3%; in test [2] (relative to ACh), 237%; in test [3] (relative to ACh), 1%; in test [4] (relative to ACh) it was 53%. Moreover, the EC50 in test [1] (setting [5]) is above 20 µM; in test [2] (setting [6]), above 20 µM; in test [3], above 20 µM; in test [4] (setting [7]), 0.0631 µM.
Turning to `CCOC(=O)N1CCC2(CC(N3CCC([C@@H]4CCCN4C(=O)NC4(C)COC4)CC3)C2)C1` (single isomer, unassigned) [2-36 Isomer 2], the Emax in test [1] (relative to ACh) is 5%; in test [2] (relative to ACh), 89%; in test [3] (relative to ACh), 3%; in test [4] (relative to ACh) it was 113%. In addition, the EC50 was above 20 µM in test [1] (setting [5]), 0.158 µM in test [2] (setting [6]), above 20 µM in test [3] and 0.00631 µM in test [4] (setting [7]).
Turning to `CCOC(=O)N1CCC2(CC(N3CCC(c4cnc(OC)cc4C)CC3)C2)C1` (single isomer, unassigned) [3-6 Isomer 2, ethyl 2-[4-(6-methoxy-4-methylpyridin-3-yl)piperidin-1-yl]-6-azaspiro[3.4]octane-6-carboxylate], the Emax was 4% in test [1] (relative to ACh), 74% in test [2] (relative to ACh), 0% in test [3] (relative to ACh) and 58% in test [4] (relative to ACh). Besides, the EC50 in test [1] (setting [5]) was above 20 µM; in test [2] (setting [6]), above 20 µM; in test [3], above 20 µM; in test [4] (setting [7]), 0.0398 µM.
As for `CCOC(=O)N1CCC2(CC(N3CCC(C4CCCN4C(=O)CC)CC3)C2)C1` (single isomer, unassigned) [2-6 Isomer 2, ethyl 2-[4-(1-propanoylpyrrolidin-2-yl)piperidin-1-yl]-6-azaspiro[3.4]octane-6-carboxylate], the Emax in test [1] (relative to ACh) is 16%; in test [2] (relative to ACh), 57%; in test [3] (relative to ACh), 30%; in test [4] (relative to ACh) it was 132%. Besides, the EC50 in test [1] (setting [5]) is above 20 µM; in test [2] (setting [6]), 3.16 µM; in test [3], above 20 µM; in test [4] (setting [7]) it was 0.0158 µM.
On to `CCOC(=O)N1CCC2(CC(N3CCC(N4CCCC4=O)CC3)C2)C1` (single isomer, unassigned) [2-111 Isomer 2, ethyl 2-[4-(2-oxopyrrolidin-1-yl)piperidin-1-yl]-6-azaspiro[3.4]octane-6-carboxylate], for which the Emax in test [1] (relative to ACh) was 0%; in test [2] (relative to ACh), 31%; in test [3] (relative to ACh), 1%; in test [4] (relative to ACh) it was 62%. The EC50 is above 20 µM in test [1] (setting [5]), 0.501 µM in test [2] (setting [6]), above 20 µM in test [3] and 0.0316 µM in test [4] (setting [7]).
Consider `CCOC(=O)N1CCC2(CC(N3CCC([C@@H]4CCCN4C(=O)N4CC(F)(F)C4)CC3)C2)C1` (single isomer, unassigned) [2-39 Isomer 2], for which the Emax in test [1] (relative to ACh) stood at 1%; in test [2] (relative to ACh), 41%; in test [3] (relative to ACh) it was 1%; in test [4] (relative to ACh), 76%. The EC50 in test [1] (setting [5]) is above 20 µM; in test [2] (setting [6]) it was 2.51 µM; in test [3], above 20 µM; in test [4] (setting [7]), 0.0158 µM.
For the compound `CCOC(=O)N1CCC2(CC(N3CCC([C@@H]4CCCN4C(=O)CCN)CC3)C2)C1` (single isomer, unassigned) [2-66 Isomer 2], the Emax amounted to 8% in test [1] (relative to ACh), 96% in test [2] (relative to ACh), 18% in test [3] (relative to ACh) and 115% in test [4] (relative to ACh). The EC50 was above 20 µM in test [1] (setting [5]), 0.0398 µM in test [2] (setting [6]), above 20 µM in test [3] and 0.00126 µM in test [4] (setting [7]).
With `CCOC(=O)N1CCC2(CC(N3CCC([C@@H]4CCCN4C(=O)NCc4ccccn4)CC3)C2)C1` (single isomer, unassigned) [2-54 Isomer 2], the “pEC50 M3” value in test [1] (CHO cells stably expressing human M3, phospho-ERK1/2, * = variable results) was below 4.7. In addition, in test [1] (CHO cells stably expressing human M3, relative to ACh), the “% Emax cf. ACh, M3” value came out at 23%. In addition, the values for the EC50 in test [2] (setting [6]) and in test [4] (setting [7]) were 0.0501 µM and 0.00126 µM, respectively. The “% Emax cf. ACh, M1” value in test [2] (CHO cells stably expressing human M1, relative to ACh) was determined as 86%. The “pEC50 M2” value in test [3] (CHO cells stably expressing human M2, phospho-ERK1/2, * = variable results) was below 4.7. The “% Emax cf. ACh, M2” value in test [3] (CHO cells stably expressing human M2, relative to ACh) is given as 8%. For the same compound, the “% Emax cf. ACh, M4” value in test [4] (CHO cells stably expressing human M4, relative to ACh) worked out at 134%.
In the case of `CCOC(=O)N1CCC2(CC(N3CCC([C@@H]4CCCN4C(=O)N4CCC(F)(F)C4)CC3)C2)C1` (single isomer, unassigned) [2-37 Isomer 2], the Emax came out at 58% in test [1] (relative to ACh), 106% in test [2] (relative to ACh), 33% in test [3] (relative to ACh) and 83% in test [4] (relative to ACh). The EC50 is above 20 µM in test [1] (setting [5]), 3.16 µM in test [2] (setting [6]), above 20 µM in test [3] and 0.02 µM in test [4] (setting [7]).
Take `CCOC(=O)N1CCC2(CC(N3CCC([C@@H]4CCCN4C(=O)OCCOC)CC3)C2)C1` (single isomer, unassigned) [2-50 Isomer 2]: the Emax in test [1] (relative to ACh) was 2%; in test [2] (relative to ACh), 63%; in test [3] (relative to ACh) it was 4%; in test [4] (relative to ACh) it was 73%. The EC50 is above 20 µM in test [1] (setting [5]), 0.251 µM in test [2] (setting [6]), above 20 µM in test [3] and 0.0251 µM in test [4] (setting [7]).
With `CCOC(=O)N1CCC2(CC(N3CCC([C@@H]4CCCN4C(=O)C4CCC4)CC3)C2)C1` (single isomer, unassigned) [2-9 Isomer 2], the Emax was found to be 6% in test [1] (relative to ACh), 43% in test [2] (relative to ACh), 4% in test [3] (relative to ACh) and 104% in test [4] (relative to ACh). Moreover, the EC50 is above 20 µM in test [1] (setting [5]), 1 µM in test [2] (setting [6]), above 20 µM in test [3] and 0.01 µM in test [4] (setting [7]).
`CCOC(=O)N1CCC2(CC(N3CCC(c4ncc[nH]4)CC3)C2)C1` (single isomer, unassigned) [1-1 Isomer 2, ethyl 2-[4-(1H-imidazol-2-yl)piperidin-1-yl]-6-azaspiro[3.4]octane-6-carboxylate]: the Emax is 26% in test [1] (relative to ACh), 121% in test [2] (relative to ACh), 20% in test [3] (relative to ACh) and 112% in test [4] (relative to ACh). The EC50 in test [1] (setting [5]) was above 20 µM; in test [2] (setting [6]), 0.0631 µM; in test [3] it was above 20 µM; in test [4] (setting [7]), 0.00794 µM.
